The values that follow come from BindingDB's records for doi:10.1021/jm970397q (Merck Research Laboratories, 1997).

The structures appear in SMILES notation. Where a name gives a salt, the structure may show the parent alone.

The target in the assay is Prothrombin (Homo sapiens, UniProt P00734). Kind of assay: Inhibition of Thrombin. To be noted: read-out: kon (M-1-s-1).
Usually kon stands for the second-order rate constant of association. As to `NC1CCC(CNC(=O)[C@@H]2CCCN2C(=O)CC(c2ccccc2)c2ccccc2)CC1` (stereo partly drawn) [(S)-1-(3,3-Diphenyl-propionyl)-pyrrolidine-2-carboxylic acid (4-amino-cyclohexylmethyl)-amide; TFA], the association rate constant (kon) was determined as 2.1e+08 M⁻¹ s⁻¹.

`NC1CCC(CNC(=O)[C@@H]2CCCN2C(=O)CC(c2cccnc2)c2ccc3c(c2)OCO3)CC1` (stereo partly drawn) [(S)-1-(3-Benzo[1,3]dioxol-5-yl-3-pyridin-3-yl-propionyl)-pyrrolidine-2-carboxylic acid (4-amino-cyclohexylmethyl)-amide; TFA]: the kon came out at 2.51e+08 M⁻¹ s⁻¹.

Regarding `NC1CCC(CNC(=O)[C@@H]2CCCN2C(=O)CC(c2ccccc2)c2ccncc2)CC1` (stereo partly drawn) [(S)-1-(3-Phenyl-3-pyridin-4-yl-propionyl)-pyrrolidine-2-carboxylic acid (4-amino-cyclohexylmethyl)-amide; TFA], the association rate constant (kon) turned out to be 1.55e+08 M⁻¹ s⁻¹.

As for `NC1CCC(CNC(=O)[C@@H]2CCCN2C(=O)CC(c2ccccc2)c2ccccn2)CC1` (stereo partly drawn) [(S)-1-(3-Phenyl-3-pyridin-2-yl-propionyl)-pyrrolidine-2-carboxylic acid (4-amino-cyclohexylmethyl)-amide; TFA], the kon was determined as 1.8e+08 M⁻¹ s⁻¹.

With `NC1CCC(CNC(=O)[C@@H]2CCCN2C(=O)CC(c2ccccc2)c2cccnc2)CC1` (stereo partly drawn) [(S)-1-(3-Phenyl-3-pyridin-3-yl-propionyl)-pyrrolidine-2-carboxylic acid (4-amino-cyclohexylmethyl)-amide; TFA], the association rate constant (kon) is 2.1e+08 M⁻¹ s⁻¹.

Consider `NC1CCC(CNC(=O)[C@@H]2CCCN2C(=O)CC2c3ccccc3C=Cc3ccccc32)CC1` (stereo partly drawn) [(S)-1-(2-5H-Dibenzo[a,d]cyclohepten-5-yl-acetyl)-pyrrolidine-2-carboxylic acid (4-amino-cyclohexylmethyl)-amide; hydrochloride], for which the on-rate constant (kon) was found to be 1.8e+08 M⁻¹ s⁻¹.

`NC1CCC(CNC(=O)[C@@H]2CCCN2C(=O)CC(C2CCCCC2)C2CCCCC2)CC1` (stereo partly drawn) [(S)-1-(3,3-Dicyclohexyl-propionyl)-pyrrolidine-2-carboxylic acid (4-amino-cyclohexylmethyl)-amide; hydrochloride]: the kon was found to be 2.3e+08 M⁻¹ s⁻¹.
